Experiment: xn = mol fraction of the nth substance listed
Details: Liquid, Other PVT measurement

CCCCn1cc[n+](C)c1.F[B-](F)(F)F [1-butyl-3-methylimidazolium tetrafluoroborate] + CCO
mass density [kg/m3]
Details	x1 = 0.2	x1 = 0.3	x1 = 0.3999	x1 = 0.4998	x1 = 0.6	x1 = 0.6996	x1 = 0.8001	x1 = 0.8998	x1 = 1
313.15 K, 200 kPa	965	1022	1071	1098	1121	1142	1158	1173	1185
313.15 K, 600 kPa	966	1023	1072	1098	1122	1142	1158	1174	1186
313.15 K, 1000 kPa	966	1023	1072	1098	1122	1143	1159	1174	1186
313.15 K, 1400 kPa	966	1024	1072	1099	1123	1144	1159	1174	1186
313.15 K, 1800 kPa	967	1024	1073	1099	1123	1144	1160	1174	1187
313.15 K, 2000 kPa	967	1024	1073	1102	1123	1144	1160	1175	1187
353.15 K, 200 kPa	935	993	1042	1070	1094	1116	1131	1147	1159
353.15 K, 600 kPa	935	993	1042	1071	1094	1116	1132	1147	1160
353.15 K, 1000 kPa	935	993	1043	1071	1095	1116	1132	1147	1160
353.15 K, 1400 kPa	936	994	1043	1071	1095	1116	1133	1147	1160
353.15 K, 1800 kPa	936	994	1043	1071	1095	1116	1133	1148	1161
353.15 K, 2000 kPa	937	994	1043	1072	1096	1117	1133	1148	1161
393.15 K, 600 kPa	904	964	1014	1042	1067	1090	1106	1122	1135
393.15 K, 1000 kPa	904	965	1014	1043	1068	1090	1106	1122	1135
393.15 K, 1400 kPa	905	965	1015	1043	1068	1090	1107	1122	1135
393.15 K, 1800 kPa	905	965	1015	1044	1069	1091	1107	1123	1136
393.15 K, 2000 kPa	905	966	1015	1044	1069	1091	1108	1123	1136
433.15 K, 1400 kPa	871	935	987	1016	1041	1065	1081	1097	1112
433.15 K, 1800 kPa	872	935	987	1017	1042	1066	1082	1097	1113
433.15 K, 2000 kPa	872	935	987	1017	1042	1066	1082	1098	1113

Reference: the NIST ThermoML archive (doi:10.1021/je900048r)
